{"source": "patent US20260083729A1", "about": "“METHODS FOR TREATMENT OF BONE MARROW FAILURE AND RELATED CONDITIONS” (Imago Biosciences, Inc., priority 2022, published 2026)", "key": {"[1]": {"system": "LSK cells (HSC/progenitor cells: Lineage−, Sca-1+, c-Kit+)", "assay": "In vivo expansion of LSK cells in bone marrow of wild-type mice (flow cytometry)", "set-up": "species or system mice (C57/BL6)", "conditions": "oral gavage", "protocol": "(§1) The effect of LSD1 inhibitors on HSCPs was investigated in in vivo studies.\n(§2) Animals. Healthy animals with an intact immune system were used for all experiments. All animals were drug and test naïve and not involved in previous procedures. Animals were maintained on a 12 hour light-dark cycle with access to water and standard chow ad libitum. CRADL animal care staff conducted routine husbandry procedures and provided daily care and monitoring of all animals housed in CRADL's animal facilities. 8-week old female C57/BL6 (C57BL/6NCrl) mice were purchased from Charles River. All mice were acclimated for at least 48 hours upon arrival. Mice were assigned to treatment groups based on complete blood counts to achieve congruent profiles, body weight was recorded for dose adjustments, and ear tagged for identification. Investigators were not blinded to the identity of mice or samples. No statistical methods were utilized to determine sample size. The experiments described in this study were designed to use the minimum number of animals required.\n(§3) Dosing. To assess the effect of different LSD1 inhibitors on hematopoietic stem and progenitor cells (HSPCs), wild-type mice were administered with Compound 3, Compound 2, or vehicle once daily for 7 days via oral gavage. Administered doses were as indicated in FIGS. 1-5 (Compound 3: 15 and 40 mg/kg, Compound 2, 15, 40, 60, and/or 80 mg/kg).\n(§4) Drug preparation. As an example of formulation calculations, a correction factor (compound and lot dependent) of 1.5 will be used (e.g., one lot of Compound 2 actual correction factor 1.67; one lot of Compound 3 actual correction factor 1.69). Vehicle is 30% PEG400 (Millipore Sigma cat #8074850058), 5% Cremophor EL (Med Chem Express cat #HY-Y189) in sterile Milli-Q water.\n(§5) Compound 3 or Compound 2 (salt) at a dose of 15 mg/kg dose was prepared by weighing out 0.3 mg×1.5 (example correction factor)=0.45 mg per mouse in 200 μl vehicle solution. Each mouse of 20 g received 200 μl of compound in vehicle solution (volume was corrected for body weight of each mouse at time of dosing). Calculations were scaled appropriately for higher doses. Compound was completely dissolved by swirling and gently pipetting in vehicle. Aliquots were stored for daily usage at 4 C in the dark. On the day of dosing, formulations and vehicle were removed from 4 C and allowed to warm to RT for at least 20 minutes before dosing. Formulations were swirled to achieve a homogenous solution prior to administration for 7 days, once daily, via oral gavage.\n(§6) Processing of bones and blood for analysis. 24 hours after the last dose was administered, blood was collected via cheek bleed and mice were subsequently sacrificed via CO2 asphyxiation. Bones were separated from the mice, muscle and tissue removed, and bone marrow cells were isolated from mouse femora and tibiae by centrifugation. Red blood cells (RBC) were lysed by adding cold ACK lysis buffer (Thermo Fisher cat #A1049201) and incubating bone marrow cells (or […] of peripheral blood) on ice for 10 minutes. Following RBC lysis, samples were topped up with an appropriate volume of FACS buffer (PBS+2% BSA) and centrifuged at 3000 rpm for 5 minutes. Cell pellet was resuspended in FACS buffer and filtered through a […] filter to remove aggregated cell clumps and debris. Cells in the filtered suspension were counted and ˜2-3×10^6 cells removed for cell staining.\n(§7) Flow Cytometry Analysis. For flow staining, @ 2-3×10e6 cells were centrifuged at 400×g, 5 minutes, 4 C in 1.5 ml centrifuge tubes. Supernatant was aspirated and cells were resuspended in 100 μl of staining cock-tail per tube. Tubes were incubated on ice for 30 minutes in the dark. 1 ml of FACS buffer (PBS+2% FBS) was added to each tube and then centrifuged at 400×g, 5 minutes, 4° C. Supernatant was aspirated, and cells were resuspended at 300 μl per tube in 7-AAD solution (5 μl/ml of FACS Buffer). […]"}, "[2]": {"system": "long-term HSC (LT-HSC) cells", "assay": "In vivo expansion of long-term HSC (LT-HSC) cells in bone marrow of wild-type mice (flow cytometry)", "set-up": "species or system mice (C57/BL6)", "conditions": "oral gavage", "protocol": "as §1, §2, §3, §4, §5, §6, §7"}, "[3]": {"system": "platelet (PLT) levels", "assay": "Complete blood count, platelet (PLT) levels, in treated mice", "assay_type": "in vivo, mice (C57/BL6)", "conditions": "once daily for 7 days, oral gavage", "protocol": "as §2, §3\nCompound 3 or Compound 2 (salt) at a dose of 15 mg/kg dose was prepared by weighing out 0.3 mg×1.5 (example correction factor)=0.45 mg per mouse in 200 μl vehicle solution. Each mouse of 20 g received 200 μl of compound in vehicle solution (volume was corrected for body weight of each mouse at time of dosing). Calculations were scaled appropriately for higher doses. Compound was completely dissolved by swirling and gently pipetting in vehicle. Aliquots were stored for daily usage at 4 C in the dark. […]\nProcessing of bones and blood for analysis. […] Cells in the filtered suspension were counted and ˜2-3×10^6 cells removed for cell staining.\nComplete blood counts. Complete blood counts from the peripheral blood sample collected at end of study were measured at IDEXX BioAnalytics."}}}
{"compound": "COc1ccc(-n2nc(NC[C@H]3CCC[C@H](N)C3)cc2-c2ccc(C#N)c(F)c2)cc1", "note": "[Compound 2]", "values": [{"measurement": "in vivo expansion of LSK cells, fold increase", "setting": "[1]; 40 mg/kg once daily for 7 days", "result": 1.7, "unit": "fold"}, {"measurement": "number of LSK cells, treated group", "setting": "[1]; 40 mg/kg once daily for 7 days", "result": 1714}, {"measurement": "in vivo expansion of LSK cells, fold increase", "setting": "[1]; 80 mg/kg once daily for 7 days", "result": 2.3, "unit": "fold"}, {"measurement": "number of LSK cells, treated group", "setting": "[1]; 80 mg/kg once daily for 7 days", "result": 2215}, {"measurement": "in vivo expansion of LT-HSC cells, fold increase", "setting": "[2]; 40 mg/kg once daily for 7 days", "result": 1.5, "unit": "fold"}, {"measurement": "number of LT-HSC cells, treated group", "setting": "[2]; 40 mg/kg once daily for 7 days", "result": 250}, {"measurement": "in vivo expansion of LT-HSC cells, fold increase", "setting": "[2]; 80 mg/kg once daily for 7 days", "result": 1.6, "unit": "fold"}, {"measurement": "number of LT-HSC cells, treated group", "setting": "[2]; 80 mg/kg once daily for 7 days", "result": 157}, {"measurement": "effect on complete blood count as evidenced by platelet (PLT) levels", "setting": "[3]; three higher concentrations", "result": "not significantly affected at any dose"}, {"measurement": "effect on complete blood count as evidenced by platelet (PLT) levels", "setting": "[3]; two concentrations", "result": "not significantly affected at either dose"}]}
{"compound": "CN1CCN(C(=O)[C@H](CCCN[C@@H]2C[C@H]2c2ccc(F)cc2)NC(=O)c2ccc(-n3ccnn3)cc2)CC1", "note": "[IMG-7289, bomedemstat]", "values": [{"measurement": "in vivo expansion of LSK cells, fold increase", "setting": "[1]; 15 mg/kg once daily for 7 days", "result": 2, "unit": "fold"}, {"measurement": "number of LSK cells, treated group", "setting": "[1]; 15 mg/kg once daily for 7 days", "result": 2545}, {"measurement": "in vivo expansion of LSK cells, fold increase", "setting": "[1]; 40 mg/kg once daily for 7 days", "result": 6, "unit": "fold"}, {"measurement": "in vivo expansion of LT-HSC cells, fold increase", "setting": "[2]; 15 mg/kg once daily for 7 days", "result": 2, "unit": "fold"}, {"measurement": "number of LT-HSC cells, treated group", "setting": "[2]; 15 mg/kg once daily for 7 days", "result": 252}, {"measurement": "in vivo expansion of LT-HSC cells, fold increase", "setting": "[2]; 40 mg/kg once daily for 7 days", "result": 7.5, "unit": "fold"}, {"measurement": "number of LT-HSC cells, treated group", "setting": "[2]; 40 mg/kg once daily for 7 days", "result": 921}, {"measurement": "effect on complete blood count as evidenced by platelet (PLT) levels", "setting": "[3]; two concentrations", "result": "reduced in a dose-dependent manner"}]}
